Assay results as given in US10508104B2, “6-hydroxy-5-(phenyl/heteroarylsulfonyl)pyrimidin-4(1H)-one as APJ agonists” (Bristol-Myers Squibb Company, priority 2016, dated 2019).

Molecular target: human APJ receptor (Homo sapiens (Human), UniProt P35414)
Assay: Intracellular cAMP accumulation assay (APJ hcAMP, HTRF)
Assay type: cell-based
Conditions: HEK293 cells stably expressing human APJ receptor; inhibition of forskolin-mediated cAMP production; read-out: Human APJ cAMP EC50 Potency range
How it was run: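 HEK293 cells stably expressing human APJ, 5,000 per well, incubated 30 min at rt with compound, […] and 2 μM forskolin. cAMP measured by HTRF against a cAMP standard curve as inhibition of forskolin-driven production. EC50 from variable-slope sigmoidal fit.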

Chain of human APJ receptor (P35414 whole entry): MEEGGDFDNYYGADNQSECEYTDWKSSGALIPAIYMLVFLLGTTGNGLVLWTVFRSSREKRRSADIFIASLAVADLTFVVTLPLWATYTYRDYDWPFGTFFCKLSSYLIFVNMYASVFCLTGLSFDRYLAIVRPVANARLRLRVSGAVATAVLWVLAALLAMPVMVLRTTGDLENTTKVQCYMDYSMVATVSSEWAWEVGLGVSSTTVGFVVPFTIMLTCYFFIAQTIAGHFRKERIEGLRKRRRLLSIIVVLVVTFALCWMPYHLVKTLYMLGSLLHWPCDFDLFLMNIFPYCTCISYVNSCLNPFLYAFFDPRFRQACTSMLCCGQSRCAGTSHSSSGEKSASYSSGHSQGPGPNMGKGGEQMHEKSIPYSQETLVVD

With `CCCCc1nc(=O)c(S(=O)(=O)c2ccc(-c3ccncc3C)cc2)c(O)n1[C@@H](CC)c1cc(F)cc(C#N)c1` [Example 450, 3-[(1S)-1-{2-butyl-6-hydroxy-5-[4-(3-methylpyridin-4-yl)benzenesulfonyl]-4-oxo-1,4-dihydropyrimidin-1-yl}propyl]-5-fluorobenzonitrile] the EC50 was 0.01 to 10 nM.
Work on `CCCCc1nc(=O)c(S(=O)(=O)c2ccc(-c3ccnc(F)c3C)cc2)c(O)n1[C@H](c1cccc(C#N)c1)C(C)C` [Example 451, 3-[(1S)-1-{2-butyl-5-[4-(2-fluoro-3-methylpyridin-4-yl)benzenesulfonyl]-6-hydroxy-4-oxo-1,4-dihydropyrimidin-1-yl}-2-methylpropyl]benzonitrile] yielded an EC50 of 0.01 to 10 nM.
In the case of `CCCCc1nc(=O)c(S(=O)(=O)c2ccc(-c3ccc(F)nc3C)cc2)c(O)n1[C@H](c1cccc(C#N)c1)C(C)C` [Example 452, 3-[(1S)-1-{2-butyl-5-[4-(6-fluoro-2-methylpyridin-3-yl)benzenesulfonyl]-6-hydroxy-4-oxo-1,4-dihydropyrimidin-1-yl}-2-methylpropyl]benzonitriIe], the EC50 is reported as 0.01 to 10 nM.
`CCCCc1nc(=O)c(S(=O)(=O)c2ccc(-c3ccc(F)nc3C)cc2)c(O)n1[C@@H](CC)c1cc(F)cc(C#N)c1` [Example 453, 3-[(1S)-1-{2-butyl-5-[4-(6-fluoro-2-methylpyridin-3-yl)benzenesulfonyl]-6-hydroxy-4-oxo-1,4-dihydropyrimidin-1-yl}propyl]-5-fluorobenzonitrile] gave an EC50 of 0.01 to 10 nM.
Compound `CCCCc1nc(=O)c(S(=O)(=O)c2ccc(-c3ccc(F)nc3C)cn2)c(O)n1[C@@H](CC)c1cccc(C#N)c1` [Example 454, 3-[(1S)-1-[2-butyl-5-({6′-fluoro-2′-methyl-[3,3′-bipyridine]-6-yl}sulfonyl)-6-hydroxy-4-oxo-1,4-dihydropyrimidin-1-yl]propyl]benzonitrile] has an EC50 of 0.01 to 10 nM.
`CCCCc1nc(=O)c(S(=O)(=O)c2ccc(-c3cccnc3C)cn2)c(O)n1[C@@H](CC)c1cccc(C#N)c1` [Example 455, 3-[(1S)-1-[2-butyl-6-hydroxy-5-({2′-methyl-[3,3′-bipyridine]-6-yl}sulfonyl)-4-oxo-1,4-dihydropyrimidin-1-yl]propyl]benzonitrile] was tested, and the EC50 was 0.01 to 10 nM.
For `CCCCc1nc(=O)c(S(=O)(=O)c2ccc(-c3ccnc(F)c3C)cn2)c(O)n1[C@@H](CC)c1cccc(C#N)c1` [Example 456, 3-[(1S)-1-[2-butyl-5-({2′-fluoro-3′-methyl-[3,4′-bipyridine]-6-yl}sulfonyl)-6-hydroxy-4-oxo-1,4-dihydropyrimidin-1-yl]propyl]benzonitrile], the EC50 was 0.01 to 10 nM.
`CCCCc1nc(=O)c(S(=O)(=O)c2ccc(-c3ccncc3C)cn2)c(O)n1[C@@H](CC)c1cccc(C#N)c1` [Example 457, 3-[(1S)-1-[2-butyl-6-hydroxy-5-({3′-methyl-[3,4′-bipyridine]-6-yl}sulfonyl)-4-oxo-1,4-dihydropyrimidin-1-yl]propyl]benzonitrile] showed an EC50 of 0.01 to 10 nM.
Work on `CCCCc1nc(=O)c(S(=O)(=O)c2ccc(-c3ccnc(F)c3C)cc2)c(O)n1[C@@H](CC)c1cc(F)cc(C#N)c1` [Example 458, 3-[(1S)-1-{2-butyl-5-[4-(2-fluoro-3-methylpyridin-4-yl)benzenesulfonyl]-6-hydroxy-4-oxo-1,4-dihydropyrimidin-1-yl}propyl]-5-fluorobenzonitrile] yielded an EC50 of 0.01 to 10 nM.
Work on `CCCCc1nc(=O)c(S(=O)(=O)c2ccc(-c3ccnc(F)c3C)cc2)c(O)n1C(c1cccc(C#N)c1)C1CC1` (centres unmarked) [Example 459, 3-({2-butyl-5-[4-(2-fluoro-3-methylpyridin-4-yl)benzenesulfonyl]-6-hydroxy-4-oxo-1,4-dihydropyrimidin-1-yl}(cyclopropyl)methyl) benzonitrile] yielded an EC50 of 0.01 to 10 nM.
Work on `CCCCc1nc(=O)c(S(=O)(=O)c2ccc(-c3cccnc3C)cc2)c(O)n1C(c1cccc(C#N)c1)C1CC1` (centres unmarked) [Example 460, 3-({2-butyl-6-hydroxy-5-[4-(2-methylpyridin-3-yl)benzenesulfonyl]-4-oxo-1,4-dihydropyrimidin-1-yl}(cyclopropyl)methyl) benzonitrile] yielded an EC50 of 0.01 to 10 nM.
In the case of `CCCCc1nc(=O)c(S(=O)(=O)c2ccc(-c3ccc(F)nc3C)cc2)c(O)n1C(c1cccc(C#N)c1)C1CC1` (centres unmarked) [Example 461, 3-({2-butyl-5-[4-(6-fluoro-2-methylpyridin-3-yl)benzenesulfonyl]-6-hydroxy-4-oxo-1,4-dihydropyrimidin-1-yl}(cyclopropyl)methyl) benzonitrile], the EC50 is reported as 0.01 to 10 nM.
`CCCCc1nc(=O)c(S(=O)(=O)c2ccc(-c3ccncc3C)cc2)c(O)n1C(c1cccc(C#N)c1)C1CC1` (centres unmarked) [Example 462, 3-({2-butyl-6-hydroxy-5-[4-(3-methylpyridin-4-yl)benzenesulfonyl]-4-oxo-1,4-dihydropyrimidin-1-yl}(cyclopropyl)methyl) benzonitrile] gave an EC50 of 0.01 to 10 nM.
`CCCCc1nc(=O)c(S(=O)(=O)c2ccc(-c3ccccc3C#N)cn2)c(O)n1[C@@H](CC)c1cccc(C#N)c1` [Example 463, 2-[6-({2-butyl-1-[(1S)-1-(3-cyanophenyl)propyl]-6-hydroxy-4-oxo-1,4-dihydropyrimidin-5-yl}sulfonyl)pyridin-3-yl]benzonitrile] gave an EC50 of 0.01 to 10 nM.
Compound `CCCCc1nc(=O)c(S(=O)(=O)c2ccc(-c3ccc(F)cc3C(N)=O)cn2)c(O)n1[C@@H](CC)c1cccc(C#N)c1` [Example 464, 2-[6-({2-butyl-1-[(1S)-1-(3-cyanophenyl)propyl]-6-hydroxy-4-oxo-1,4-dihydropyrimidin-5-yl)sulfonyl)pyridin-3-yl]-5-fluorobenzamide] has an EC50 of 0.01 to 10 nM.
In the case of `CCCCc1nc(=O)c(S(=O)(=O)c2ccc(-c3ccccc3C(N)=O)cc2)c(O)n1[C@@H](CC)c1cccc(C#N)c1` [Example 465, 4′-({2-butyl-1-[(1S)-1-(3-cyanophenyl)propyl]-6-hydroxy-4-oxo-1,4-dihydropyrimidin-5-yl}sulfonyl)-[1,1′-biphenyl]-2-carboxamide], the EC50 is reported as 0.01 to 10 nM.
`CCCCc1nc(=O)c(S(=O)(=O)c2ccc(-c3ccccc3C#N)cc2)c(O)n1[C@@H](CC)c1cccc(C#N)c1` [Example 466, 4′-({2-butyl-1-[(1S)-1-(3-cyanophenyl)propyl]-6-hydroxy-4-oxo-1,4-dihydropyrimidin-5-yl}sulfonyl)-[1,1′-biphenyl]-2-carbonitrile] gave an EC50 of 0.01 to 10 nM.
Compound `CCCCc1nc(=O)c(S(=O)(=O)c2ccc(-c3ccccc3C(N)=O)cn2)c(O)n1[C@@H](CC)c1cccc(C#N)c1` [Example 467, 2-[6-({2-butyl-1-[(1S)-1-(3-cyanophenyl)propyl]-6-hydroxy-4-oxo-1,4-dihydropyrimidin-5-yl}sulfonyl)pyridin-3-yl]benzamide] has an EC50 of 0.01 to 10 nM.
`CC[C@@H](c1cccc(C#N)c1)n1c(CC2CC2)nc(=O)c(S(=O)(=O)c2ccc(-c3ccccc3C(N)=O)cc2)c1O` [Example 468, 4′-({1-[(1S)-1-(3-cyanophenyl)propyl]-2-(cyclopropylmethyl)-6-hydroxy-4-oxo-1,4-dihydropyrimidin-5-yl}sulfonyl)-[1,1′-biphenyl]-2-carboxamide] showed an EC50 of 0.01 to 10 nM.
With `CC[C@@H](c1cccc(C#N)c1)n1c(CC2CC2)nc(=O)c(S(=O)(=O)c2ccc(-c3ccc(F)cc3C(N)=O)cc2)c1O` [Example 469, 4′-({1-[(1S)-1-(3-cyanophenyl)propyl]-2-(cyclopropylmethyl)-6-hydroxy-4-oxo-1,4-dihydropyrimidin-5-yl}sulfonyl)-4-fluoro-[1,1′-biphenyl]-2-carboxamide] the EC50 was 0.01 to 10 nM.
For `CC[C@@H](c1cccc(C#N)c1)n1c(CC2CC2)nc(=O)c(S(=O)(=O)c2ccc(-c3ccncc3C(N)=O)cc2)c1O` [Example 470, 4-[4-({1-[(1S)-1-(3-cyanophenyl)propyl]-2-(cyclopropylmethyl)-6-hydroxy-4-oxo-1,4-dihydropyrimidin-5-yl}sulfonyl)phenyl] pyridine-3-carboxamide], the EC50 was 0.01 to 10 nM.
Work on `CC[C@@H](c1cccc(C#N)c1)n1c(CC2CC2)nc(=O)c(S(=O)(=O)c2ccc(-c3cnccc3C#N)cc2)c1O` [Example 471, 3-[4-({1-[(1S)-1-(3-cyanophenyl)propyl]-2-(cyclopropylmethyl)-6-hydroxy-4-oxo-1,4-dihydropyrimidin-5-yl}sulfonyl)phenyl] pyridine-4-carbonitrile] yielded an EC50 of 0.01 to 10 nM.
`CC[C@@H](c1cccc(C#N)c1)n1c(CC2CC2)nc(=O)c(S(=O)(=O)c2ccc(-c3cnccc3C(N)=O)cc2)c1O` [Example 472, 3-[4-({1-[(1S)-1-(3-cyanophenyl)propyl]-2-(cyclopropylmethyl)-6-hydroxy-4-oxo-1,4-dihydropyrimidin-5-yl}sulfonyl)phenyl] pyridine-4-carboxamide] was tested, and the EC50 was 0.01 to 10 nM.
`CC[C@@H](c1cc(F)cc(C#N)c1)n1c(CC2CC2)nc(=O)c(S(=O)(=O)c2ccc(-c3ccc(F)cc3C(N)=O)cc2)c1O` [Example 473, 4′-({1-[(1S)-1-(3-cyano-5-fluorophenyl)propyl]-2-(cyclopropylmethyl)-6-hydroxy-4-oxo-1,4-dihydropyrimidin-5-yl}sulfonyl)-4-fluoro-[1,1′-biphenyl]-2-carboxamide] was tested, and the EC50 was 0.01 to 10 nM.
With `CC[C@@H](c1cccc(C#N)c1)n1c(CC2CC2)nc(=O)c(S(=O)(=O)c2ccc(-c3ccncc3C#N)cc2)c1O` [Example 474, 4-[4-({1-[(1S)-1-(3-cyanophenyl)propyl]-2-(cyclopropylmethyl)-6-hydroxy-4-oxo-1,4-dihydropyrimidin-5-yl}sulfonyl)phenyl] pyridine-3-carbonitrile] the EC50 was 0.01 to 10 nM.
For `CC[C@@H](c1cc(F)cc(C#N)c1)n1c(CC2CC2)nc(=O)c(S(=O)(=O)c2ccc(-c3ccncc3C)cc2)c1O` [Example 475, 3-[(1S)-1-[2-(cyclopropylmethyl)-6-hydroxy-5-[4-(3-methylpyridin-4-yl)benzenesulfonyl]-4-oxo-1,4-dihydropyrimidin-1-yl]propyl]-5-fluorobenzonitrile], the EC50 was 0.01 to 10 nM.
